Experimental data published in US20230073461A1, “C[…]” (BioNTech SE, priority 2020, published 2023).

Key:
[1] = In vitro metabolism in blood, liver microsomes, S9 fractions, hepatocytes; type: in vitro ADME, mice, rats, monkeys, and humans; settings: rat samples
Method: (§1) In vitro metabolism of ALC-0315 and ALC-0159 was evaluated in blood, liver microsomes, S9 fractions, and hepatocytes from mice, rats, monkeys, and humans. In vivo metabolism was examined in rat plasma, urine, faeces, and liver samples from the PK study. […] ALC-0315 and ALC-0159 are apparently metabolised by hydrolytic metabolism of the ester and amide functionalities, respectively, and this hydrolytic metabolism is observed across the species evaluated.

[2] = Single dose IV PK, metabolism and excretion of LNP lipids in rats; type: in vivo; settings: for drop of concentration in liver / drop of concentration in plasma: two weeks
Method: A single dose PK study of ALC-0315 and […] following intravenous (IV) bolus injection of a nanoparticle formulation in rats was conducted to assess the PK and metabolism of lipid excipients ALC-0315 and ALC-0159.
as §1

[3] = biological target: human ACE2 peptidase domain (amino acids 1-615 of human ACE2 with C-terminal His-10 and Avi tags) (human) (UniProt Q9BYF1)
Sequence of UniProt Q9BYF1 (Q9BYF1 18-615 limits assumed): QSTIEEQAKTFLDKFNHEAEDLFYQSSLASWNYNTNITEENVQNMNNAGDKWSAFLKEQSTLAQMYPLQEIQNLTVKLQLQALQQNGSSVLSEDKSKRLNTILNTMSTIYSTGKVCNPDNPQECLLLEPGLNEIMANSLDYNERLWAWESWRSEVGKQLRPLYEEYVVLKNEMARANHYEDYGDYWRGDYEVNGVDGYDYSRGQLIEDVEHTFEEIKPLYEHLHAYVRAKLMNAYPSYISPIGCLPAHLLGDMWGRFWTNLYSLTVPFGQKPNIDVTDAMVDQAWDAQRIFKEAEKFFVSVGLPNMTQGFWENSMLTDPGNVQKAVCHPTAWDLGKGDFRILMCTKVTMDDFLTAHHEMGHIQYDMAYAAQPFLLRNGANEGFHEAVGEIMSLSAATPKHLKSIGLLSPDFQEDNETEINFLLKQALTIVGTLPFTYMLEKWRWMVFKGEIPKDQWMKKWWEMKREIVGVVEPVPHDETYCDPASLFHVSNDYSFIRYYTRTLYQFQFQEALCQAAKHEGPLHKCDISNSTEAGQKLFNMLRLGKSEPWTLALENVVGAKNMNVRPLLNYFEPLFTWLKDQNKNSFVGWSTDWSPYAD

[4] = biological target: human ACE2 peptidase domain (amino acids 1-615 of human ACE2 with C-terminal His-10 and Avi tags) (human) (UniProt Q9BYF1); assay: biolayer interferometry; compared with a literature value for monomeric RBD

| Molecule | rate of metabolism in vitro and in vivo [1] | eliminated unchanged in faeces [2] | drop of concentration in liver ([2]; IV bolus of LNP) [fold] | drop of concentration in plasma ([2]; IV bolus of LNP) | half-life ([2]; rat, plasma and liver, IV bolus of LNP, read-out: apparent terminal t½ in plasma and liver) [h] | Kd [3] [pM] | fold of the reported KD of monomeric RBD [4] [fold] | apparent terminal t½ in plasma and liver ([2]; IV bolus of LNP) [h] |
| --- | --- | --- | --- | --- | --- | --- | --- | --- |
| CCCCCCCCC(CCCCCC)C(=O)OCCCCCCN(CCCCO)CCCCCCOC(=O)C(CCCCCC)CCCCCCCC (stereo not drawn) [ALC-0315, ((4-hydroxybutyl)azanediyl)bis(hexane-6,1-diyl)bis(2-hexyldecanoate)] | relatively slowly | little to no unchanged material | ~4 | approximately 7000 fold | 144 to 192 |  |  |  |
| RBD-foldon trimer encoded by BNT162b1 (SARS-CoV-2 spike receptor-binding domain fused at its C-termi (other; other documents disagree on this pair) |  |  |  |  |  | 5 | 1000 |  |
| CCCCCCCCCCCCCCN(CCCCCCCCCCCCCC)C(=O)COCCOCCOCCOCCOCCOCCOCCOCCOCCOCCOCCOCCOCCOCCOCCOCCOCCOCCOCCOCCOCCOCCOCCOCCOCCOCCOCCOCCOCCOCCOCCOCCOCCOCCOCCOCCOCCOCCOCCOCCOCCOCCOCCOCCOCCOC [ALC-0159, 2-[(polyethylene glycol)-2000]-N,N-ditetradecylacetamide] | relatively slowly | 50% | > 250 | approximately 8000 fold |  |  |  | 48 to 72 |
